# According to PMC7297817, “Pharmacological Characterization of a Betaine/GABA Transporter 1 (BGT1) Inhibitor Displaying an Unusual Biphasic Inhibition Profile and Anti-seizure Effects” (Neurochemical Research, 2020):
# Entries after “also recorded” stand apart in the source; their conditions may differ. Where two headings read alike, the source gives them in different places.
# Key:
# [1] = molecular target: T1, mGAT3 (Mus musculus, UniProt P31650); experiment: [3H]GABA uptake at mGAT3 stably expressed in HEK-293 cells; assay type: cell-based; details: N=3
# T1 construct: expressed in transfected cells
# T1 sequence (P31650 whole entry): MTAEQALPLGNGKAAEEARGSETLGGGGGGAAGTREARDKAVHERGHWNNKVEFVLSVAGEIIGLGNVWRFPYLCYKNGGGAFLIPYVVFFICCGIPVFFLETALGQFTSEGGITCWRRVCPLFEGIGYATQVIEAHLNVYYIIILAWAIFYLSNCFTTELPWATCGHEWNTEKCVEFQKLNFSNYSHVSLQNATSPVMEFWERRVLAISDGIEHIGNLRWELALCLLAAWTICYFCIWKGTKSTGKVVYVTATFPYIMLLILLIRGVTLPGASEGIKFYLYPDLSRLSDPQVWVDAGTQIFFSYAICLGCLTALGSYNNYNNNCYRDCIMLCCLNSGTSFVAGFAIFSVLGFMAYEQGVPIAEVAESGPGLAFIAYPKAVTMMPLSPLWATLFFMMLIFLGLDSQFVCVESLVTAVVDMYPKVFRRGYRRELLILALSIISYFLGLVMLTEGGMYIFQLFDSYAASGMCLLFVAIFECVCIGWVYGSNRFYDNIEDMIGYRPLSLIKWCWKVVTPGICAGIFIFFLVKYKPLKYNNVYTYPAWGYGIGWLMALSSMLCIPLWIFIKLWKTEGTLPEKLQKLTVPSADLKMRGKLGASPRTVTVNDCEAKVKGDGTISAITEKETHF
# Protocol: (§1) The HEK-293 and Flp-In CHO cell lines stably expressing mouse (m) and human (h) GATs, respectively, have been described previously and were cultured accordingly. The tsA201 cell line was used for transient expression while the MDCK II cell line express BGT1 endogenously. Both cell lines were cultured as described. tsA201 cells were transfected with DNA constructs (8 μg per 10 cm dish if not otherwise mentioned) using 40 μL PolyFect transfection reagent according to the manufacturer’s protocol (Qiagen, Venlo, Netherlands). The DNA constructs encoding hBGT1, hGAT1-3 [36], the mutated constructs hBGT1 Q299 and hGAT3 L314Q described previously, and hBGT Y453A were synthesized and sequence validated by Genscript (NJ, USA).
# (§2) The [^3H]GABA competition uptake assay was performed as previously described. A minor change, however, was introduced for uptake in MDCK II cells, in which 100 nM [^3H]GABA was used for a 15 min incubation period at 37 °C instead of 30 nM [^3H]GABA and 3 min incubation. Studies related to the inhibition curves with GABA and BPDBA at hBGT1 were obtained both with and without the presence of 10 μM ATP during the [^3H]GABA uptake assay.
# The [^3H]GABA uptake data was normalized to the percentage of total uptake in the individual experiments in the presence of the lowest compound concentration or no compound present. […]
# [2] = molecular target: T2, hGAT2 (Homo sapiens, UniProt Q9NSD5); experiment: [3H]GABA uptake at hGAT2 stably expressed in CHO cells; assay type: cell-based
# T2 construct: expressed in transfected cells
# T2 sequence (Q9NSD5 1-602): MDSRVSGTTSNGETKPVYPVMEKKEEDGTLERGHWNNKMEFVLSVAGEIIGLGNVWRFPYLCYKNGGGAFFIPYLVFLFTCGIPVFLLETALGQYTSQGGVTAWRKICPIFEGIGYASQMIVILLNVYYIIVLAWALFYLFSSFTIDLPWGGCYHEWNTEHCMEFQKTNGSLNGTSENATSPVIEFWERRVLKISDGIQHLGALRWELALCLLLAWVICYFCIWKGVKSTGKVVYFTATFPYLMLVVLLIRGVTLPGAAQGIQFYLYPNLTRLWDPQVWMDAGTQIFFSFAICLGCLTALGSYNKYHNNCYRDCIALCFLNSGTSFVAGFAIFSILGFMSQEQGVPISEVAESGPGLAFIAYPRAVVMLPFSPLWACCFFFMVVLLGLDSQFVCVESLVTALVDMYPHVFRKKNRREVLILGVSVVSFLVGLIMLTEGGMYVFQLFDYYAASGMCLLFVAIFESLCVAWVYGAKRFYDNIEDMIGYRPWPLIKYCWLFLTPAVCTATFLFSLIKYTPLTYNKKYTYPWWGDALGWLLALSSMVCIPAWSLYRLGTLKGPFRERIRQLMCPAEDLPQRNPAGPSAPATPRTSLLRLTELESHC
# Protocol: as §1, §2
# The [^3H]GABA uptake data was normalized to the percentage of total uptake in the individual experiments in the presence of the lowest compound concentration or no compound present. Data presented is the pooled data of at least three independent experiments with three technical replicates. Concentration–response curves (CRCs) were fitted with GraphPad Prism (version 8.2.1, Yosemite, GraphPad Software, San Diego, CA, USA) by non-linear regression to the sigmoidal concentration response model: Y=Bottom+(Top-Bottom)/1+10^LogIC50-X∗nH where Top is the Top plateau, Bottom is the Bottom plateau, X is the logarithm of the concentration of the compound, LogIC50 is the concentration giving a response halfway between Top and Bottom,and nH is the Hill slope.
# The best fit for CRCs obtained with the [^3H]GABA uptake assay was identified by the extra-sum-of-squares F test (for convenience referred to as F test).
# [3] = Rotarod test of minimal motor impairment; assay type: in vivo, mouse; details: mouse, in vivo, ip; CF-1 mice of the MES test; probit analysis
# Protocol: (§3) The rotarod test was performed just prior to the three seizure tests.
# (§4) Probit analysis was used to analyse the efficacy and tolerability results obtained from the dose–response studies and to calculate the median effective (ED50) dose, the median toxic dose (TD50), and the 95% confidence interval.
# [4] = tested on: mice; experiment: Rotarod test of minimal motor impairment; assay type: in vivo, mouse
# Protocol: as §3, §4
# [5] = molecular target: T3, 5-HT1A (Homo sapiens, UniProt P08908); experiment: NIMH PDSP radioligand binding, 5-HT1A; details: radioligand [3H]8-OH-PDAT, n=4
# T3 construct: purchased NIMH Psychoactive Drug Screening Program (PDSP)
# T3 sequence (P08908 whole entry): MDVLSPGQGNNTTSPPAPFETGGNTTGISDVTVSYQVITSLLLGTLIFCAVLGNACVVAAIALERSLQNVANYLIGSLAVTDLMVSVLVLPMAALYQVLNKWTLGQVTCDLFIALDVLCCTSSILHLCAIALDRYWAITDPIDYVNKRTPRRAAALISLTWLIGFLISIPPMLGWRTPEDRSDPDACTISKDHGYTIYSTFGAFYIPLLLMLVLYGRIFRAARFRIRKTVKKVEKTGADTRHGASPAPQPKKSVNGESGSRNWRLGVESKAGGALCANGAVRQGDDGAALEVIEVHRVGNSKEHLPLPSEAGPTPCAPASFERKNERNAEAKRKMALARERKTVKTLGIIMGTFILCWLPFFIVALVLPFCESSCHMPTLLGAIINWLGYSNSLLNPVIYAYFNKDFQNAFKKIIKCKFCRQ
# [6] = molecular target: T4, 5-HT6 (Homo sapiens, UniProt P50406); experiment: NIMH PDSP radioligand binding, 5-HT6; details: radioligand [3H]LSD, n=4
# T4 construct: NIMH PDSP (screening service)
# T4 sequence (P50406 whole entry, species assumed): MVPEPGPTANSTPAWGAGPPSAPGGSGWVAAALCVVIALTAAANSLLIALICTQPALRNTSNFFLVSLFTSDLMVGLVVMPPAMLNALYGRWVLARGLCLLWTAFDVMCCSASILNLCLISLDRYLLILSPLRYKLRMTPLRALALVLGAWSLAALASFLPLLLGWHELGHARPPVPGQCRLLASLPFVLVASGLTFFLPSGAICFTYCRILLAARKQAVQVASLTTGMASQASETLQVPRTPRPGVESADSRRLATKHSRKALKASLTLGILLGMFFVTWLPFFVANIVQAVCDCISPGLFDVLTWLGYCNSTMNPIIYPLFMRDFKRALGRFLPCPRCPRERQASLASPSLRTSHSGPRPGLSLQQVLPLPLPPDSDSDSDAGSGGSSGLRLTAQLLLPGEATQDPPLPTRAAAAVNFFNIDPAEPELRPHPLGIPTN
# [7] = molecular target: T5, D4 (Homo sapiens, UniProt P21917); experiment: NIMH PDSP radioligand binding, D4; details: radioligand [3H]N-methylspiperone, n=4
# T5 construct: purchased NIMH Psychoactive Drug Screening Program (PDSP)
# T5 sequence (P21917 whole entry): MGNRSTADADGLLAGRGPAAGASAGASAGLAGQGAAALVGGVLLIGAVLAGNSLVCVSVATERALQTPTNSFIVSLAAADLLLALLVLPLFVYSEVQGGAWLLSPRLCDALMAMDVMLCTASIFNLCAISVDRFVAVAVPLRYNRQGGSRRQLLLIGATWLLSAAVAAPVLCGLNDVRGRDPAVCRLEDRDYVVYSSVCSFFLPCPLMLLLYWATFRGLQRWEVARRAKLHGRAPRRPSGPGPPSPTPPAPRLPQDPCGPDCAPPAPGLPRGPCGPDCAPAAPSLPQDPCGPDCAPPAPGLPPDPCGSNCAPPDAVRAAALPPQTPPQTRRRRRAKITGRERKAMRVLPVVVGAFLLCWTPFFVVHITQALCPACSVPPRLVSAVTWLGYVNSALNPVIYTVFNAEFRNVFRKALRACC
# [8] = molecular target: T6, Alpha2B (Homo sapiens, UniProt P18089); experiment: NIMH PDSP radioligand binding, Alpha2B; details: radioligand [3H]rauwolscine, n=4
# T6 construct: purchased NIMH Psychoactive Drug Screening Program (PDSP)
# T6 sequence (P18089 whole entry): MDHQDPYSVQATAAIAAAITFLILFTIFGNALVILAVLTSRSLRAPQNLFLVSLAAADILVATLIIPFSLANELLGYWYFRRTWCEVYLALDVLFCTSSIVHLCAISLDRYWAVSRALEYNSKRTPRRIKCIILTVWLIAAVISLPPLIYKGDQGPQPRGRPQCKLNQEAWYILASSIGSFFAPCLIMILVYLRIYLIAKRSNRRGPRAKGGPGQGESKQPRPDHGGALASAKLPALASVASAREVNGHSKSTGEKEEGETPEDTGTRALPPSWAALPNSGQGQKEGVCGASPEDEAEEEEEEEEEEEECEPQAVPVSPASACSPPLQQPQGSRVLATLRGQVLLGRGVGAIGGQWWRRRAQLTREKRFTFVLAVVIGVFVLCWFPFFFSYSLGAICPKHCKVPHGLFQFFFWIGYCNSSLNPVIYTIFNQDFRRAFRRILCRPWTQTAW
# [9] = molecular target: T7, Beta1 (Homo sapiens, UniProt P08588); experiment: NIMH PDSP radioligand binding, Beta1; details: radioligand [125I]pindolol, n=4
# T7 construct: purchased NIMH Psychoactive Drug Screening Program (PDSP)
# T7 sequence (P08588 whole entry): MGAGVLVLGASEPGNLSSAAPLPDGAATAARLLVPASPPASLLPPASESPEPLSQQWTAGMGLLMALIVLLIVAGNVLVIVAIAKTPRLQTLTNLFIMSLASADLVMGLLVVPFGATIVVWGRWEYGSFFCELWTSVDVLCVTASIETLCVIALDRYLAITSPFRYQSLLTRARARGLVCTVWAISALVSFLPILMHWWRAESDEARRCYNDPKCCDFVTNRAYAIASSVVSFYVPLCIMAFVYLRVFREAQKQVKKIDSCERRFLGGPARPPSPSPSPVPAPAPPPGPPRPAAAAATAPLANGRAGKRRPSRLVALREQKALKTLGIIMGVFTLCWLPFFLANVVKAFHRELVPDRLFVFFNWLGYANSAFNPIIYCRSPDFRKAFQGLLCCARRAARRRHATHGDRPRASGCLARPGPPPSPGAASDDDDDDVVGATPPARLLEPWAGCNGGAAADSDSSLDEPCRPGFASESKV
# [10] = tested on: BZP rat brain; experiment: NIMH PDSP radioligand binding, BZP rat brain; details: 10 μM; radioligand [3H]Flunitrazepam; n=4
# Protocol: IC50 values in μM (Ki μM)^a. The targets in bold were inhibited by >35% at 10 μM.
# [11] = molecular target: T8, M3 (Homo sapiens, UniProt P20309); experiment: NIMH PDSP radioligand binding, M3
# T8 construct: purchased NIMH Psychoactive Drug Screening Program (PDSP)
# T8 sequence (P20309 whole entry): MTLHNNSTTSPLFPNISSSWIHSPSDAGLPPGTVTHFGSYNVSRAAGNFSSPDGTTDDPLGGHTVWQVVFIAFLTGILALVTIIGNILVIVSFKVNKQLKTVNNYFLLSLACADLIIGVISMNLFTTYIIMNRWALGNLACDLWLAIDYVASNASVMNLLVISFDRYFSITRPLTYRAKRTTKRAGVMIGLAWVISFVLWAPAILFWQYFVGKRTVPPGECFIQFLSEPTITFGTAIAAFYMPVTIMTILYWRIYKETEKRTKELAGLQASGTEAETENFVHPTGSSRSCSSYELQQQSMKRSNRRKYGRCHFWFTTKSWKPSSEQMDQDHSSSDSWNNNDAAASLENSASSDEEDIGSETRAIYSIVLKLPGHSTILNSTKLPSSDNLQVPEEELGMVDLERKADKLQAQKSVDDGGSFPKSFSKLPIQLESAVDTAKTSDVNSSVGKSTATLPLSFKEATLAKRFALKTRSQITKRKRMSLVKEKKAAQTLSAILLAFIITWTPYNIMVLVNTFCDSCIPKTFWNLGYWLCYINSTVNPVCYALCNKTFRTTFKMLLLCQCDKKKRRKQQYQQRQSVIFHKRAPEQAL
# [12] = molecular target: T9, KOR (Homo sapiens, UniProt P41145); experiment: NIMH PDSP radioligand binding, KOR; details: radioligand [3H]U69593, n=4
# T9 construct: purchased NIMH Psychoactive Drug Screening Program (PDSP)
# T9 sequence (P41145 whole entry): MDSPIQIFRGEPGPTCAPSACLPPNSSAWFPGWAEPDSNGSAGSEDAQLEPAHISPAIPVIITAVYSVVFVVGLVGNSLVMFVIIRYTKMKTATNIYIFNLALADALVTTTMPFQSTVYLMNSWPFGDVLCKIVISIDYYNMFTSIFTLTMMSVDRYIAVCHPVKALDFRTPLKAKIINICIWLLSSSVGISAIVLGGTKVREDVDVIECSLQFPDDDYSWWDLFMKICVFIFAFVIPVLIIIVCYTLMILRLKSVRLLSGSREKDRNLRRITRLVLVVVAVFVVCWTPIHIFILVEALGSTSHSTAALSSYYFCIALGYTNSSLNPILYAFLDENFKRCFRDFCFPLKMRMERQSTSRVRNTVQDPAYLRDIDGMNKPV
# [13] = molecular target: T10, MOR (Homo sapiens, UniProt P35372); experiment: NIMH PDSP radioligand binding, MOR; details: radioligand [3H]DAMGO, n=4
# T10 construct: purchased NIMH Psychoactive Drug Screening Program (PDSP)
# T10 sequence (P35372 whole entry): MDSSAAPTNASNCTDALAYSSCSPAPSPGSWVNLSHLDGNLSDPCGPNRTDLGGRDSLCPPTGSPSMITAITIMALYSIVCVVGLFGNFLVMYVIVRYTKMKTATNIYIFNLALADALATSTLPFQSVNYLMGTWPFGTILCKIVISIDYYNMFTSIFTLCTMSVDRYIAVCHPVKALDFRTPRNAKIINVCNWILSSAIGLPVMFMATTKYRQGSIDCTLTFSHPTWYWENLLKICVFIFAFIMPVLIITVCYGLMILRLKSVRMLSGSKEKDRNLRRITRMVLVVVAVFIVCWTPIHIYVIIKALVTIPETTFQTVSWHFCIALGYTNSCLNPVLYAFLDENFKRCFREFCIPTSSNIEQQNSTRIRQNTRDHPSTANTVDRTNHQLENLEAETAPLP
structure (smiles),measurement,setting,value
"Cc1ccsc1C(=CCCN(C)[C@H]1CCCC[C@H]1C(=O)O)c1sccc1C [SBV2-114, (1R,2S)-2-((4,4-bis(3-methylthiophen-2-yl)but-3-en-yl)(methyl)amino)cyclohexanecarboxylic acid]",IC50,[1]; ambiguous fit,> 1000 µM
same,Fit,[1]; preferred model,Ambiguous
same,IC50,"[2]; ambiguous fit, N=3, CHO, read-out: IC50",525 µM
same,Frac,"[2]; biphasic fit, N=1, CHO",0.06
same,IC50,"[2]; biphasic fit, N=1, CHO, read-out: IC50, high affinity component",3.31 µM
same,Fit,[2]; preferred model per experiment,Biphasic; also recorded: Ambiguous
same,IC50,"[2]; read-out: IC50, low affinity component, biphasic fit, N=1, CHO",550 µM
same,TD50 at 15 min,[3],163 mg/kg
same,#Motor impairment/#Tested,"[4]; CF-1 mice, prior to MES, 50 mg/kg i.p., 15 min",0/3
same,#Motor impairment/#Tested,"[4]; CF-1 mice, prior to MES, 100 mg/kg i.p., 15 min",0/4
same,#Motor impairment/#Tested,"[4]; CF-1 mice, prior to MES, 125 mg/kg i.p., 15 min",0/7
same,#Motor impairment/#Tested,"[4]; CF-1 mice, prior to MES, 150 mg/kg i.p., 15 min",2/6
same,#Motor impairment/#Tested,"[4]; CF-1 mice, prior to MES, 200 mg/kg i.p., 15 min",3/4
same,#Motor impairment/#Tested,"[4]; CF-1 mice, prior to s.c.PTZ, 150 mg/kg i.p., 30 min",0/8
same,#Motor impairment/#Tested,"[4]; Frings mice, 50 mg/kg i.p., 15 min",0/3
same,#Motor impairment/#Tested,"[4]; Frings mice, 50 mg/kg i.p., 30 min",0/3
same,#Motor impairment/#Tested,"[4]; Frings mice, 50 mg/kg i.p., 60 min",0/3
same,#Motor impairment/#Tested,"[4]; Frings mice, 50 mg/kg i.p., 120 min",0/3
same,#Motor impairment/#Tested,"[4]; Frings mice, 120 mg/kg i.p., 30 min",0/4
same,#Motor impairment/#Tested,"[4]; Frings mice, 120 mg/kg i.p., 60 min",0/4
same,#Motor impairment/#Tested,"[4]; Frings mice, 120 mg/kg i.p., 120 min",0/4
same,#Motor impairment/#Tested,"[4]; Frings mice, 120 mg/kg i.p., 240 min",0/4
same,inhibition at 10 µM,[5],-7.9%
same,inhibition at 10 µM,[6],50%
same,inhibition at 10 µM,[7],-5.1%
same,inhibition at 10 µM,[8],24.9%
same,inhibition at 10 µM,[9],37.9%
same,% inhibition,[10],9.1%
same,inhibition at 10 µM,[11],55.4%
same,inhibition at 10 µM,[12],40.8%
same,inhibition at 10 µM,[13],42%
